Laboratory results published in patent US20110091531A1, “Cooling Composition” (GIV AUDAN SA, priority 2008, published 2011).

Test: Solubility of Evercool 180 alone in solvent under regular conditions
Assay type: physicochemical

- Soluble in menthol (at 65° C. under regular conditions): 17%
- Soluble in peppermint oil (at room temperature under regular conditions): 12%
- Solubility in Orange oil (1× Brazilian) (under regular conditions): > 1%
SMILES: CC(C)[C@@H]1CC[C@@H](C)C[C@H]1C(=O)Nc1ccc(CC#N)cc1 [Evercool™ 180, (1R,2S,5R)—N-(4-(cyanomethyl)phenyl)-2-isopropyl-5-methylcyclohexane-carboxamide]
